Measured values from patent publication US20080261973A1, “Sulphonamidoaniline Derivatives Being Janus Kinase Inhibitors” (Novartis AG, priority 2005, published 2008).

melting point | Structure (SMILES)
125 to 128 °C | C[C@@H](Nc1nc(Nc2cccc(NS(C)(=O)=O)c2)nc2[nH]ccc12)C(C)(C)C [Example 49, N-{3-[4-((R)-1,2,2-Trimethyl-propylamino)-7H-pyrrolo[2,3-d]pyrimidin-2-ylamino]-phenyl}-methanesulfonamide]
234 to 239 °C | CS(=O)(=O)Nc1cccc(Nc2nc(NC3CCCC3)c3nc[nH]c3n2)c1 [Example 37, N-[3-(6-Cyclopentylamino-9H-purin-2-ylamino)-phenyl]-methanesulfonamide]
227 to 230 °C | CS(=O)(=O)Nc1cccc(Nc2nc(N3CCN(c4ccncc4)CC3)c3nc[nH]c3n2)c1 [Example 7, N-{3-[6-(4-Pyridin-4-yl-piperazin-1-yl)-9H-purin-2-ylamino]-phenyl}-methanesulfonamide]
136 to 139 °C | C[C@@H](Nc1nc(Nc2cccc(NS(C)(=O)=O)c2)nc2[nH]cnc12)c1ccccc1 [Example 41, N-{3-[6-((R)-1-Phenyl-ethylamino)-9H-purin-2-ylamino]-phenyl}-methanesulfonamide]
169 to 171 °C | C[C@@H](Nc1nc(Nc2cccc(NS(C)(=O)=O)c2)nc2[nH]cnc12)C(C)(C)C [Example 39, N-{3-[6-((R)-1,2,2-Trimethyl-propylamino)-9H-purin-2-ylamino]-phenyl}-methanesulfonamide]
147 to 150 °C | CS(=O)(=O)Nc1cccc(Nc2nc(NCC3CCCCN3)c3nc[nH]c3n2)c1 (stereo not shown) [Example 21, N-(3-{6-[(Piperidin-2-ylmethyl)-amino]-9H-purin-2-ylamino}-phenyl)-methanesulfonamide]
128 to 131 °C | CS(=O)(=O)Nc1cccc(Nc2nc(NCc3cccc(C#N)c3)c3nc[nH]c3n2)c1 [Example 78, N-{3-[6-(3-Cyano-benzylamino)-9H-purin-2-ylamino]-phenyl}-methanesulfonamide]
192 to 197 °C | CS(=O)(=O)Nc1cccc(Nc2nc(N3CCC[C@H]3CO)c3nc[nH]c3n2)c1 [Example 3, N-{3-[6-((S)-2-Hydroxymethyl-pyrrolidin-1-yl)-9H-purin-2-ylamino]-phenyl}-methanesulfonamide]
243 to 246 °C | O=S(=O)(Nc1cccc(Nc2nc(NC3CCCC3)c3nc[nH]c3n2)c1)C(F)(F)F [Example 27, N-[3-(6-Cyclopentylamino-9H-purin-2-ylamino)-phenyl]-C,C,C-trifluoro-methanesulfonamide]
138 to 142 °C | CN(C)c1ccc(CNc2nc(Nc3cccc(NS(C)(=O)=O)c3)nc3[nH]cnc23)cc1 [Example 20, N-{3-[6-(4-Dimethylamino-benzylamino)-9H-purin-2-ylamino]-phenyl}-methanesulfonamide]
133 to 136 °C | C=CS(=O)(=O)Nc1cccc(Nc2nc(N[C@H](C)C(C)(C)C)c3nc[nH]c3n2)c1 [Example 97, Ethenesulfonic acid {3-[6-((R)-1,2,2-trimethyl-propylamino)-9H-purin-2-ylamino]-phenyl}-amide]
199 to 202 °C | CS(=O)(=O)Nc1cccc(Nc2nc(NCCc3ccccn3)c3nc[nH]c3n2)c1 [Example 10, N-{3-[6-(2-Pyridin-2-yl-ethylamino)-9H-purin-2-ylamino]-phenyl}-methanesulfonamide]
298 to 301 °C | Cc1cn(-c2nc(Nc3cccc(NS(C)(=O)=O)c3)nc3[nH]cnc23)cn1 [Example 13, N-{3-[6-(4-Methyl-imidazol-1-yl)-9H-purin-2-ylamino]-phenyl}-methanesulfonamide]
